{"source": "ChEMBL document CHEMBL1201862", "about": "“PubChem BioAssay data set” (2004)", "key": {"[1]": {"molecular_target": "T1, Tyrosine-protein phosphatase non-receptor type 7 (Homo sapiens, UniProt P35236)", "T1 sequence (P35236 whole entry)": "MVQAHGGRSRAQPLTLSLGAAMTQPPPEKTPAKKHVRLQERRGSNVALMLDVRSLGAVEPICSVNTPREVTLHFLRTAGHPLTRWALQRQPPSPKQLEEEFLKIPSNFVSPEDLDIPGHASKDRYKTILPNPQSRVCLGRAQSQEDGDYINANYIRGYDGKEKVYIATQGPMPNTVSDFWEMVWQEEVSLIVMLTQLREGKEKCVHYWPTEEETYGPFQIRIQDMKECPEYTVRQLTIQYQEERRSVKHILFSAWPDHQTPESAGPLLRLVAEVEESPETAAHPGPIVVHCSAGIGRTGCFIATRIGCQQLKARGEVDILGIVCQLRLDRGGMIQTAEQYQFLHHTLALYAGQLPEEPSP", "format": "functional"}, "[2]": {"molecular_target": "T2, Tyrosine-protein phosphatase non-receptor type 22 (Homo sapiens, UniProt Q9Y2R2)", "T2 sequence (Q9Y2R2 whole entry)": "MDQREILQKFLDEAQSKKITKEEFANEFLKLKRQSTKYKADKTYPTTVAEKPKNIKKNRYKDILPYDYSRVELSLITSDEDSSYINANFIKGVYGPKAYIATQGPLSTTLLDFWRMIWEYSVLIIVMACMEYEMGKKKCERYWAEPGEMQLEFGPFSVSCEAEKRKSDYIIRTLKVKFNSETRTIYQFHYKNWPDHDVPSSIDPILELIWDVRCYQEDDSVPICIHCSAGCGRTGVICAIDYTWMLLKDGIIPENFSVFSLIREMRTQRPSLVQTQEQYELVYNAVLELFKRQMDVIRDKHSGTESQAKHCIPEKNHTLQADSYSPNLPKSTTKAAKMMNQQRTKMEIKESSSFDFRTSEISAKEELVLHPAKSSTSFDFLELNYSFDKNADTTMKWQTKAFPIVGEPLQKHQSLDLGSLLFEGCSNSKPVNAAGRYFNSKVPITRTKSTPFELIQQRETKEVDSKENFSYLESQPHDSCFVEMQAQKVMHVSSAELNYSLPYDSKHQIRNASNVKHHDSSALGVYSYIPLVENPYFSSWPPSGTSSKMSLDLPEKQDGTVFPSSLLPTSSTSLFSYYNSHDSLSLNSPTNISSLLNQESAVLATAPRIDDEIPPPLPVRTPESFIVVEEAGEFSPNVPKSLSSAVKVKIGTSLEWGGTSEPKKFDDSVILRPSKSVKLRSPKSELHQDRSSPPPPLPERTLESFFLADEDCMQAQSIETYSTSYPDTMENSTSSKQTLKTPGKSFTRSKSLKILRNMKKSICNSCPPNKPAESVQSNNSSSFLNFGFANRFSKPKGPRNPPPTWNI", "format": "functional"}, "[3]": {"molecular_target": "T2, Tyrosine-protein phosphatase non-receptor type 22", "format": "functional", "remark": "listed apart in the source"}, "[4]": {"molecular_target": "Beta-adrenergic receptor kinase 1 (Homo sapiens, UniProt P25098)", "sequence (P25098 whole entry)": "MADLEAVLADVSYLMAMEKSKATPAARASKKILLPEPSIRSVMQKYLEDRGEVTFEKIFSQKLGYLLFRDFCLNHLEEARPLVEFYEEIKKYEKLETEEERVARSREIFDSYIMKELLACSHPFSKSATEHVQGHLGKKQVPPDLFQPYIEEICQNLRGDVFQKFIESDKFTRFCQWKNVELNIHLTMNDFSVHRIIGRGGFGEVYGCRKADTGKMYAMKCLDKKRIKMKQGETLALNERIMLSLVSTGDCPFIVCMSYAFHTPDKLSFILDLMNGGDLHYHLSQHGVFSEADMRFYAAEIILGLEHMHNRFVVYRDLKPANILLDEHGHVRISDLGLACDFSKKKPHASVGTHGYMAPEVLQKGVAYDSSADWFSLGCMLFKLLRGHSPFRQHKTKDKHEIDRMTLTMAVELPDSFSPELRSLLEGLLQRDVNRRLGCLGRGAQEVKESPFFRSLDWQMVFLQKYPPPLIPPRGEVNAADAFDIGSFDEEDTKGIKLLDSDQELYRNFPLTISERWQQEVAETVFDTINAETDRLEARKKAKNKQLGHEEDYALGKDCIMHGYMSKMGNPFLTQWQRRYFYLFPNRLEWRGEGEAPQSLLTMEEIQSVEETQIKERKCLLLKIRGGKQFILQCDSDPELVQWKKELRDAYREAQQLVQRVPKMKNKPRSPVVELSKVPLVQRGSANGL", "test": "blockers of aptamer binding to GRK2 – biochemical, flow cytometry beads, FAM-aptamer, powder set 1, dose response (AID 588720)"}, "[5]": {"molecular_target": "SUMO E1/E2 (Homo sapiens, UniProt P63279+Q9UBE0+Q9UBT2)", "sequence (Q9UBE0 whole entry)": "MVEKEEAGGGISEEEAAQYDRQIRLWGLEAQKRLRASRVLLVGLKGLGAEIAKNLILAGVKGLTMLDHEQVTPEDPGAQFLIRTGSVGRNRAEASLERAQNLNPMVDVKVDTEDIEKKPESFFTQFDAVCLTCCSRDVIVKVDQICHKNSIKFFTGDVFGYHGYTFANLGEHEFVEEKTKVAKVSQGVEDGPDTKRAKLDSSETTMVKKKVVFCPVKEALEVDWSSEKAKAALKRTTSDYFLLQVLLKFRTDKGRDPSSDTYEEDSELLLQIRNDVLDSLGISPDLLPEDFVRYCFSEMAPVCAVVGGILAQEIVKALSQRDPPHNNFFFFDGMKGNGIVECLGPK", "sequence (Q9UBT2 whole entry)": "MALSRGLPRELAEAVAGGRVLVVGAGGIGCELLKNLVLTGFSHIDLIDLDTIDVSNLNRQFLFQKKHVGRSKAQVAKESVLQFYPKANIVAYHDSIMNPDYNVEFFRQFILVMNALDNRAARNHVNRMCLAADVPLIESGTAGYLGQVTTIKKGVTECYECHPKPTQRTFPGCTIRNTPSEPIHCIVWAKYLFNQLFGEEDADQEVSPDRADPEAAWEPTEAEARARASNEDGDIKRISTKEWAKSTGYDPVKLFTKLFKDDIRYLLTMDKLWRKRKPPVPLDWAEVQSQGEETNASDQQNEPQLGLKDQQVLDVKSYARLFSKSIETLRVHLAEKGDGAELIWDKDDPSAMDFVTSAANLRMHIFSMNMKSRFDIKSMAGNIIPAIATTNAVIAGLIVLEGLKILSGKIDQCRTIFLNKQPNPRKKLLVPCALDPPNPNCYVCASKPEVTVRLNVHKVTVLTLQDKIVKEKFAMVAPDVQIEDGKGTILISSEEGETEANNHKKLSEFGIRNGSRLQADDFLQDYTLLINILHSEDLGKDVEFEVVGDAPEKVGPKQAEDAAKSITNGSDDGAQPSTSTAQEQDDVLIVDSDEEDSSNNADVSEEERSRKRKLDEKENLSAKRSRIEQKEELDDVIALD", "sequence (P63279 whole entry)": "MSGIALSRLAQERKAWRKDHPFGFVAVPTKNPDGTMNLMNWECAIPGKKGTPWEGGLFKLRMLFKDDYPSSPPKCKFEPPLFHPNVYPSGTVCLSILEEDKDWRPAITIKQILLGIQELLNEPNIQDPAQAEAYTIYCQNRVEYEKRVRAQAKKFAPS", "test": "SAR analysis of SUMOylation using HTRF in an in-Vitro dose response assay. [Related pubchem assays (depositor defined):AID2006, AID2011, AID2018, AID2069, AID2658]", "format": "functional"}, "[6]": {"molecular_target": "T3, Voltage-gated N-type calcium channel alpha-1B subunit/Amyloid beta A4 precursor protein-binding family A member 1 (Homo sapiens, UniProt Q00975+Q02410)", "T3 sequence (Q00975 whole entry)": "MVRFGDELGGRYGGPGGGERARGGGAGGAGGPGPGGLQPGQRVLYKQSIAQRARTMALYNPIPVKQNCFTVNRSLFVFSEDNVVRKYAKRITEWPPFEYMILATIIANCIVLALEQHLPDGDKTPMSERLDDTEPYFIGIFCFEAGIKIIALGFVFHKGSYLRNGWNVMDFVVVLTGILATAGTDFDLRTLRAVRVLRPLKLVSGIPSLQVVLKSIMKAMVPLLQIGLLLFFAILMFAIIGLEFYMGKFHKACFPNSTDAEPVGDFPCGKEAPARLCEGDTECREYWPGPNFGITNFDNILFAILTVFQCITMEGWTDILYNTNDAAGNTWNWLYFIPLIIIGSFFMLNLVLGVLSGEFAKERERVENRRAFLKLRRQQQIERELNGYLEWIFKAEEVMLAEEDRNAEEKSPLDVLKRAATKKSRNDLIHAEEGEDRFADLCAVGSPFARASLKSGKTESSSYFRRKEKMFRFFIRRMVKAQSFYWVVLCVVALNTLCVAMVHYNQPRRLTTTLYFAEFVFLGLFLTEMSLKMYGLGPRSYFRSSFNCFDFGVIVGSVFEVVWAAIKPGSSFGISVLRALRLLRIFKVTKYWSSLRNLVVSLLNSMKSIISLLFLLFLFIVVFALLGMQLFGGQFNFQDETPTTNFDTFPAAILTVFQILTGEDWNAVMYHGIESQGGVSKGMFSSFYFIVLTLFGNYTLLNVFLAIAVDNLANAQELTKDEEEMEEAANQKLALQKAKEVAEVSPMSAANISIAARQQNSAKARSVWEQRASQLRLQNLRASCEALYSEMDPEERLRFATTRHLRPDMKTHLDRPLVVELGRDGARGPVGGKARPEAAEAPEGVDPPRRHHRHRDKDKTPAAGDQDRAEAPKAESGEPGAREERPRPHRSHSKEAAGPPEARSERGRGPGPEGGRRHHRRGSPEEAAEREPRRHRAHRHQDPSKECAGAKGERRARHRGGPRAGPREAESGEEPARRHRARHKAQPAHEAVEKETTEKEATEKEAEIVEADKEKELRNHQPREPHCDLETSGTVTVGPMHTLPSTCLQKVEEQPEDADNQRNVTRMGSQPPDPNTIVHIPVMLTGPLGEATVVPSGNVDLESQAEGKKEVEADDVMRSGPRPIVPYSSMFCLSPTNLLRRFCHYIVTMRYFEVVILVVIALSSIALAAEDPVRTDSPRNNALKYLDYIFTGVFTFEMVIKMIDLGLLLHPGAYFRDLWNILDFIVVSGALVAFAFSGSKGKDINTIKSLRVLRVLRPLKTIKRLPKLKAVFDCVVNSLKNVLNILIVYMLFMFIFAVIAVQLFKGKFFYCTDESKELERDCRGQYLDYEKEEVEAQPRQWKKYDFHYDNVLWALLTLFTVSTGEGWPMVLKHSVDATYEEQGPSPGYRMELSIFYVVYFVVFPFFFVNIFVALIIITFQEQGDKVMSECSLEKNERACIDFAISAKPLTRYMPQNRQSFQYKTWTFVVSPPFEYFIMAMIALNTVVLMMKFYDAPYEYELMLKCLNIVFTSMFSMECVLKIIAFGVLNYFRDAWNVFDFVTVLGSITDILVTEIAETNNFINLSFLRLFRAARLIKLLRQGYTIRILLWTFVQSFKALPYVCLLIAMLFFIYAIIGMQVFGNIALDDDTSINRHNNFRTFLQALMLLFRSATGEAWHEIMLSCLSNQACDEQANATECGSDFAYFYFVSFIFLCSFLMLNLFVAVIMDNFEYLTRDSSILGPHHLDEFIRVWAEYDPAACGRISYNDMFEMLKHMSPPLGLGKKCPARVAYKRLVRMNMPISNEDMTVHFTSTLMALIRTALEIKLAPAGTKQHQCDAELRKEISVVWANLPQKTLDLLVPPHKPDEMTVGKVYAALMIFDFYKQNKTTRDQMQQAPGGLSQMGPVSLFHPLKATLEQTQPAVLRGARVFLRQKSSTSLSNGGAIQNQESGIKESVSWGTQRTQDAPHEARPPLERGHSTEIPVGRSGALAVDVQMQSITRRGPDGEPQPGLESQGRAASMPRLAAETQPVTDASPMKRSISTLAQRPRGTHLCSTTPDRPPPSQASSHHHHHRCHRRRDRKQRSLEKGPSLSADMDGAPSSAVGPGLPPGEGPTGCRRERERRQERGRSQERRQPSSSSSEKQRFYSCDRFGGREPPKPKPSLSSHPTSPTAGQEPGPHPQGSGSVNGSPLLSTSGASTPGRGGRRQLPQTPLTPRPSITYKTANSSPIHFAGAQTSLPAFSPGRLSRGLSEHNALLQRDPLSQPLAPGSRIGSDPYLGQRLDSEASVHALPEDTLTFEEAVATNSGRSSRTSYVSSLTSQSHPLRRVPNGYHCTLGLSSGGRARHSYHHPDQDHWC", "T3 sequence (Q02410 whole entry)": "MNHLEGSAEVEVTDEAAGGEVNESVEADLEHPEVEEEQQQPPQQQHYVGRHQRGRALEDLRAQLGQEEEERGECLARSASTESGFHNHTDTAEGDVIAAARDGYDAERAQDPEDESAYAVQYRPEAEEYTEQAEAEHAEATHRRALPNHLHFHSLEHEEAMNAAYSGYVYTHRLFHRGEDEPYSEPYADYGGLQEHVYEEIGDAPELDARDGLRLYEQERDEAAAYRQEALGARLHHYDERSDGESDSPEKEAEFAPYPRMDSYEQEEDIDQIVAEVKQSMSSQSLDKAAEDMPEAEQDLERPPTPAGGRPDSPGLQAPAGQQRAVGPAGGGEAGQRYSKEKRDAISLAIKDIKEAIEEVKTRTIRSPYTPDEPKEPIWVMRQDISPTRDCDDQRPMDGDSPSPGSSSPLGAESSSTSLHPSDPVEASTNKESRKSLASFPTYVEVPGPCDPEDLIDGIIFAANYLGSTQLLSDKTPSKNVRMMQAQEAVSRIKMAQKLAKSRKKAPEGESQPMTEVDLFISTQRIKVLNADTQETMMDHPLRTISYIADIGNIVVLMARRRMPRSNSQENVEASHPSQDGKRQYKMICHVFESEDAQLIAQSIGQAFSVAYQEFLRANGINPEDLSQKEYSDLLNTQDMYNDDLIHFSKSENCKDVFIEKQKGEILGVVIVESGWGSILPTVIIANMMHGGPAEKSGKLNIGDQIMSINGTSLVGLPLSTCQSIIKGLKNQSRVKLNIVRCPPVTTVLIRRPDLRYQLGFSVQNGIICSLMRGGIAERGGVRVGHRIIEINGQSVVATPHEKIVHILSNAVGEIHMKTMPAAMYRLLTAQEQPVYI", "test": "disruptors of Mint-PDZ/N-type channel peptide interaction – biochemical, HTRF, set 2, SAR follow-up (AID 434980)", "format": "functional"}, "[7]": {"molecular_target": "T3, Voltage-gated N-type calcium channel alpha-1B subunit/Amyloid beta A4 precursor protein-binding family A member 1", "test": "disruptors of Mint-PDZ/N-type channel peptide interaction – biochemical, HTRF, SAR follow-up (AID 2489)", "format": "functional"}, "[8]": {"tested_on": "INS1", "test": "suppression of NO production in INS-1E cells – cell-based, Griess absorbance, dry powder, dose response (AID 488866)", "format": "functional", "details": "Rattus norvegicus"}}, "note": "Calls of active or inactive are those of the source. Cut-off read from the data, not from the text of the source, for most assays here: actives have a measured IC50 and inactives only a lower limit."}
{"smiles": "O=C(C[S+]([O-])CC(=O)Nc1ccc(Cl)cc1)NCC1OCCc2ccccc21", "note": "(stereo not drawn)", "values": [{"measurement": "IC50", "setting": "[1]", "result": "> 79.4 µM (inactive)"}, {"measurement": "IC50", "setting": "[2]", "result": "> 79.4 µM (inactive)"}, {"measurement": "IC50", "setting": "[3]", "result": "> 79.4 µM (inactive)"}]}
{"smiles": "CCOc1ccc(CCNC(=O)CCS(=O)(=O)c2ccc(Br)cc2)cc1OCC", "values": [{"measurement": "EC50", "setting": "[4]", "result": "17.7 µM (inactive)"}]}
{"smiles": "Cc1ccccc1CNC(=O)COC(=O)c1cc(-c2ccco2)nc2ccccc12", "values": [{"measurement": "IC50", "setting": "[5]", "result": "3.83 µM (active)"}, {"measurement": "IC50", "setting": "[6]", "result": "10.9 µM (active)"}, {"measurement": "IC50", "setting": "[7]", "result": "20.2 µM (active)"}]}
{"smiles": "COc1ccc(S(=O)(=O)N(C)C[C@@H]2Oc3c(NC(=O)Nc4ccccc4-c4ccccc4)cccc3C(=O)N([C@@H](C)CO)C[C@H]2C)cc1", "values": [{"measurement": "AC50", "setting": "[8]", "result": "33.4 µM (active)"}]}
